Laboratory results taken from paper PMC10648937, “Drug distribution and efficacy of the DprE1 inhibitor BTZ-043 in the C3HeB/FeJ mouse tuberculosis model” (Antimicrobial Agents and Chemotherapy, 2023).
Like-named read-outs stand apart in the source and are kept apart here.

Experiments:
Mtb Erdman [1] = assay: Semi-quantitative MBC (sqMBC) assay; assay type: cell-based, Mycobacterium tuberculosis; settings: M. tuberculosis Erdman; for sqMBC: 10 d incubation, 99% (2-log10) CFU reduction of inoculum
[2] = system: non-replicating Mtb in rabbit caseum; design: method as in PMID 34370580; settings: similarly reported previously; cited from earlier work
Mtb = system: Mtb; design: method as in PMID 34370580; settings: C3HeB/FeJ mice, 8 weeks (5 of 7 days per week), 100 and 200 mg/kg BID; cited from earlier work
Mtb Erdman [3] = assay: Broth microdilution MIC (Alamar Blue endpoint), with and without 4% huSA (serum-shift assay); settings: Mycobacterium tuberculosis, ERDMAN

In the case of COc1ncnc(Cn2cc(C(=O)NCCO)c3ncc(C)cc32)c1C [TBA-7371], the sqMBC (Mtb Erdman [1]) is listed as 1 µg/mL, the “sqMBC + huSA” value (Mtb Erdman [1]; with 4% huSA) is listed as 1 µg/mL and the “activity against non-replicating Mtb in rabbit caseum MBC assay” value [2] is listed as “lacked appreciable activity”. The “average lung CFU reduction compared to untreated controls” value (Mtb) was 1.5 log10, the MIC (Mtb Erdman [3]) was 0.5 µg/mL and the MIC (Mtb Erdman [3]; read-out: MIC + huSA) was 1 µg/mL.
With CC(=O)NC[C@H]1CN(c2ccc(N3CCOCC3)c(F)c2)C(=O)O1 [linezolid] the sqMBC (Mtb Erdman [1]) was over 8 µg/mL, the MIC (Mtb Erdman [3]) was 1 µg/mL and the MIC (Mtb Erdman [3]; read-out: MIC + huSA) was 1 µg/mL.
For COc1c(N2C[C@@H]3CCCN[C@@H]3C2)c(F)cc2c(=O)c(C(=O)O)cn(C3CC3)c12 [moxifloxacin], the sqMBC (Mtb Erdman [1]) was 0.125 µg/mL and the MIC (Mtb Erdman [3]) was 0.06 µg/mL.
